This is an account of results in patent US12139520B2 (priority 2020, dated 2024).

For series [1], the target named is T1, hAMY3 receptor (Homo sapiens, UniProt O60896+P30988).
T1 sequence (P30988 25-474): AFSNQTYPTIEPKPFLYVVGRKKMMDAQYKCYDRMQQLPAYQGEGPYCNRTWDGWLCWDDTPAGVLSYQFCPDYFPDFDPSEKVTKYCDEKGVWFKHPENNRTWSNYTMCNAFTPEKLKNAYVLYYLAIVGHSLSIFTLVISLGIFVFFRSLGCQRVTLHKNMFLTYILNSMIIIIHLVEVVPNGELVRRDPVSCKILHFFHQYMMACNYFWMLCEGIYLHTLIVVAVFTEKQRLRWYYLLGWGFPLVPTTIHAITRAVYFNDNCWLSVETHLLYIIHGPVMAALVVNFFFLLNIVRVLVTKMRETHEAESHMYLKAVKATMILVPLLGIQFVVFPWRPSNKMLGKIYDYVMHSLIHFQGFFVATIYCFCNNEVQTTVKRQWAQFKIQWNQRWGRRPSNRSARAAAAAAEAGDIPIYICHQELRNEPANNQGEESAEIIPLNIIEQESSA
T1 sequence (O60896 24-148 partner): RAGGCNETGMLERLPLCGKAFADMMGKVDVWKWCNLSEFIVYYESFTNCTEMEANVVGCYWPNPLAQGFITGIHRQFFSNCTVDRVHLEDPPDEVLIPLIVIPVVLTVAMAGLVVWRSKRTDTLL
Briefly: cAMP assay for in vitro receptor activation, hAMY3-R. It counts as cell-based. The settings on record: cAMP assay, hAMY3 receptor; read-out: hAMY3R EC50. In a few lines:
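Accumulated cAMP was detected by time-resolved FRET one hour after reagent addition. Beforehand, hAMY3-R-overexpressing monoclonal cells (2000/well, DPBS, 0.05% casein, 0.5 mM IBMX) received graded doses of compound for 30 min at room temperature; human amylin served as positive control.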

Series [2] has as its target hAM1 receptor (Homo sapiens, UniProt O60895+Q16602). Briefly: cAMP assay for in vitro receptor activation, hAM1-R. The settings on record: cAMP assay, hAM1 receptor; read-out: hAM1R EC50. It is filed as cell-based. In a few lines: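 Monoclonal stable hAM1-overexpressing cells, thawed from frozen stock; 8000 cells/well in DPBS + 0.05% casein + 0.5 mM IBMX; read-out cAMP.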

Series [3] can be described thus: Physical stability of peptide analogues (Thioflavin T fibrillation). It counts as physicochemical. The settings on record: maximum ThT signal normalized between hAMY maximum and buffer background; 40° C., shaking, four days; pH 7 per table title. Summed up:
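Maximum ThT emission at 480 nm, after LOESS smoothing, is given as percent of the span from buffer background to hAMY. Conditions: 50 mM buffer at pH 4 or 7, 4 μM dye, 40 °C, repeated shaking, readings every 10 min for four days.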

Bridge positions count the residues as written; N and C are the ends. Square brackets hold non-standard residues; d marks the D form. Peptide text beside a SMILES is read from it. Hyp = O=C(O)[C@@H]1C[C@@H](O)CN1; Cit = NC(=O)NCCC[C@H](N)C(=O)O

Chain of hAM1 receptor (Q16602 23-461): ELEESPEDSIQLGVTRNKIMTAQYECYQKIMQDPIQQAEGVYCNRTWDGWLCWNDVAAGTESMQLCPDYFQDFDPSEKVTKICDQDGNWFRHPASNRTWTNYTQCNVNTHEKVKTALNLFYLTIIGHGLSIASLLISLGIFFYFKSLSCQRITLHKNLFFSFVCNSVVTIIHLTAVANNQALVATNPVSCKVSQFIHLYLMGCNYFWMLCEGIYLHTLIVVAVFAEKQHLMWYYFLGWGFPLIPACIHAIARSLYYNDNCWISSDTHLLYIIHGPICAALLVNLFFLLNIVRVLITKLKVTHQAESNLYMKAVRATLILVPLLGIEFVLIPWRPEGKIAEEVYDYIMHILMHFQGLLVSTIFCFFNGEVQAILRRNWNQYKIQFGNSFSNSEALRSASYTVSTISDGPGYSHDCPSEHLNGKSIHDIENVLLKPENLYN
Chain of hAM1 receptor (O60895 43-175 partner): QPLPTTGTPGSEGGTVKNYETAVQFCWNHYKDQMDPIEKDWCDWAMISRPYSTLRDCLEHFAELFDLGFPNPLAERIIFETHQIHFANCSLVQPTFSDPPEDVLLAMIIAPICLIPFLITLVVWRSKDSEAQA

For the compound `CC[C@H](C)[C@H](NC(=O)[C@H](CCC(N)=O)NC(=O)[C@H](Cc1c[nH]cn1)NC(=O)[C@H](C)NC(=O)[C@H](CC(C)C)NC(=O)[C@H](CCCNC(=N)N)NC(=O)[C@H](CCC(N)=O)NC(=O)[C@@H](NC(=O)[C@@H](NC(=O)[C@@H]1CSSC[C@H](NC(=O)CN)C(=O)N[C@@H](CCCNC(=N)N)C(=O)N[C@@H]([C@@H](C)O)C(=O)NCC(=O)N[C@@H]([C@@H](C)O)C(=O)N1)[C@@H](C)O)C(C)C)C(=O)N[C@@H](Cc1ccc(O)cc1)C(=O)N[C@@H](CCC(N)=O)C(=O)N[C@@H](Cc1ccccc1)C(=O)N[C@H](C(=O)N[C@@H](CC(N)=O)C(=O)N[C@@H](CCCCN)C(=O)N[C@@H](CC(=O)O)C(=O)N[C@@H](CCCCN)C(=O)N[C@@H](CC(=O)O)C(=O)N[C@@H](CC(N)=O)C(=O)N[C@H](C(=O)N[C@@H](C)C(=O)N1CCC[C@H]1C(=O)N[C@@H](CCCNC(=N)N)C(=O)N[C@@H](CO)C(=O)N[C@@H](CCCCN)C(=O)N[C@H](C(=O)N[C@@H](CO)C(=O)N1CCC[C@H]1C(=O)N[C@@H](CCC(N)=O)C(=O)N[C@@H](Cc1ccccc1)C(=O)N1C[C@H](O)C[C@H]1C(N)=O)[C@@H](C)CC)C(C)C)[C@@H](C)O` [compound 238] (H-GCRTGTCTVQRLAHQIYQFTNKDKDNVAPRSKISPQF[Hyp]-NH2; disulfide 2-7; N-terminus assumed), the EC50 in series [1] is 0.235 nM; in series [2] it was more than 5000 nM. In series [3], the “Max ThT signal (%)” value was found to be 0.600%.
On the same counts, the results for `CC[C@H](C)[C@H](NC(=O)[C@H](CCC(N)=O)NC(=O)[C@H](Cc1c[nH]cn1)NC(=O)[C@H](C)NC(=O)[C@H](CC(C)C)NC(=O)[C@H](CCCNC(=N)N)NC(=O)[C@H](CCC(N)=O)NC(=O)[C@@H](NC(=O)[C@@H](NC(=O)[C@@H]1CSSC[C@H](NC(=O)CN)C(=O)N[C@@H](CCCNC(=N)N)C(=O)N[C@@H]([C@@H](C)O)C(=O)NCC(=O)N[C@@H]([C@@H](C)O)C(=O)N1)[C@@H](C)O)C(C)C)C(=O)N[C@@H](Cc1ccc(O)cc1)C(=O)N[C@@H](CCC(N)=O)C(=O)N[C@@H](Cc1ccccc1)C(=O)N[C@H](C(=O)N[C@@H](CC(=O)O)C(=O)N[C@@H](CCCCN)C(=O)N[C@@H](Cc1ccccc1)C(=O)N[C@@H](CCCCN)C(=O)N[C@@H](CC(=O)O)C(=O)N[C@@H](CC(N)=O)C(=O)N[C@H](C(=O)N[C@@H](C)C(=O)N1CCC[C@H]1C(=O)N[C@@H](CCCNC(=N)N)C(=O)N[C@@H](CO)C(=O)N[C@@H](CCCCN)C(=O)N[C@H](C(=O)N[C@@H](CO)C(=O)N1CCC[C@H]1C(=O)N[C@@H](CCC(N)=O)C(=O)N[C@H](C(=O)N[C@@H](Cc1ccccc1)C(N)=O)[C@@H](C)O)[C@@H](C)CC)C(C)C)[C@@H](C)O` [compound 239] (H-GCRTGTCTVQRLAHQIYQFTDKFKDNVAPRSKISPQTF-NH2; disulfide 2-7; N-terminus assumed) are 0.236 nM, more than 5000 nM and 0.200%.
On the same counts, the results for `CC[C@H](C)[C@H](NC(=O)[C@H](CCC(N)=O)NC(=O)[C@H](CC(=O)O)NC(=O)[C@H](C)NC(=O)[C@H](CC(C)C)NC(=O)[C@H](CCCNC(N)=O)NC(=O)[C@H](C)NC(=O)[C@@H](NC(=O)[C@@H](NC(=O)[C@@H]1CSSC[C@H](NC(=O)[C@@H](N)CCCCN)C(=O)N[C@@H](CC(N)=O)C(=O)N[C@@H]([C@@H](C)O)C(=O)N[C@@H](CO)C(=O)N[C@@H]([C@@H](C)O)C(=O)N1)[C@@H](C)O)C(C)C)C(=O)N[C@H](C(=O)N[C@@H](CCC(N)=O)C(=O)N[C@@H](Cc1ccccc1)C(=O)N[C@@H](CO)C(=O)N[C@@H](CC(N)=O)C(=O)N[C@@H](CCCCN)C(=O)N[C@@H](CC(=O)O)C(=O)N[C@@H](CCCCN)C(=O)N[C@@H](C)C(=O)N[C@@H](CCC(N)=O)C(=O)N[C@H](C(=O)N[C@@H](CO)C(=O)N1CCC[C@H]1C(=O)N1CCC[C@H]1C(=O)N[C@H](C(=O)N[C@@H](CCC(=O)O)C(=O)N[C@H](C(=O)NCC(=O)N1CCC[C@H]1C(=O)N[C@@H](CC(N)=O)C(=O)N[C@@H](CO)C(=O)N1C[C@H](O)C[C@H]1C(N)=O)C(C)C)[C@@H](C)O)C(C)C)[C@@H](C)O` [compound 244] (H-KCNTSTCTVA[Cit]LADQITQFSNKDKAQVSPPTEVGPNS[Hyp]-NH2; disulfide 2-7) are 0.006 nM, more than 5000 nM and 4.100%.
On the same counts, the results for `CC[C@H](C)[C@H](NC(=O)[C@H](CCC(N)=O)NC(=O)[C@H](CC(=O)O)NC(=O)[C@H](C)NC(=O)[C@H](CC(C)C)NC(=O)[C@H](CCCNC(N)=O)NC(=O)[C@H](CC(N)=O)NC(=O)[C@@H](NC(=O)[C@@H](NC(=O)[C@@H]1CSSC[C@H](NC(=O)[C@@H](N)CCCNC(=N)N)C(=O)N[C@@H](CC(N)=O)C(=O)N[C@@H](C)C(=O)N[C@@H](CO)C(=O)N[C@@H]([C@@H](C)O)C(=O)N1)[C@@H](C)O)C(C)C)C(=O)N[C@H](C(=O)N[C@@H](CCC(N)=O)C(=O)N[C@@H](Cc1ccccc1)C(=O)N[C@@H](CO)C(=O)N[C@@H](CC(N)=O)C(=O)N[C@@H](CCCCN)C(=O)N[C@@H](CC(=O)O)C(=O)N[C@@H](CCCCN)C(=O)N[C@@H](C)C(=O)N[C@@H](CCC(N)=O)C(=O)N[C@H](C(=O)N[C@@H](CO)C(=O)N1CCC[C@H]1C(=O)N1CCC[C@H]1C(=O)N[C@H](C(=O)N[C@@H](CCC(=O)O)C(=O)N[C@H](C(=O)NCC(=O)N1CCC[C@H]1C(=O)N[C@@H](CC(N)=O)C(=O)N[C@@H](CO)C(=O)N1C[C@H](O)C[C@H]1C(N)=O)C(C)C)[C@@H](C)O)C(C)C)[C@@H](C)O` [compound 245] (H-RCNASTCTVN[Cit]LADQITQFSNKDKAQVSPPTEVGPNS[Hyp]-NH2; disulfide 2-7; N-terminus assumed) are 0.017 nM, more than 5000 nM and 3.350%.
For the compound `CC[C@H](C)[C@H](NC(=O)[C@H](CCC(N)=O)NC(=O)[C@H](Cc1c[nH]cn1)NC(=O)[C@H](C)NC(=O)[C@H](CC(C)C)NC(=O)[C@H](CCCNC(N)=O)NC(=O)[C@H](CCC(N)=O)NC(=O)[C@@H](NC(=O)[C@@H](NC(=O)[C@@H]1CSSC[C@H](NC(=O)[C@@H](N)CCCCN)C(=O)N[C@@H](CC(N)=O)C(=O)N[C@@H]([C@@H](C)O)C(=O)N[C@@H](C)C(=O)N[C@@H]([C@@H](C)O)C(=O)N1)[C@@H](C)O)C(C)C)C(=O)N[C@@H](C)C(=O)N[C@@H](CCC(N)=O)C(=O)N[C@@H](Cc1ccccc1)C(=O)N[C@H](C(=O)N[C@@H](CC(=O)O)C(=O)N[C@@H](CCCCN)C(=O)N[C@@H](CC(=O)O)C(=O)N[C@@H](CCCCN)C(=O)N[C@@H](CC(=O)O)C(=O)N[C@@H](CC(N)=O)C(=O)N[C@H](C(=O)N[C@@H](C)C(=O)N1CCC[C@H]1C(=O)N1CCC[C@H]1C(=O)N[C@H](C(=O)N[C@@H](CC(N)=O)C(=O)N[C@H](C(=O)NCC(=O)N[C@@H](CO)C(=O)N[C@@H](CC(N)=O)C(=O)NCC(=O)N1C[C@H](O)C[C@H]1C(N)=O)C(C)C)[C@@H](C)O)C(C)C)[C@@H](C)O` [compound 246] (H-KCNTATCTVQ[Cit]LAHQIAQFTDKDKDNVAPPTNVGSNG[Hyp]-NH2; disulfide 2-7), the EC50 in series [1] is 0.01 nM; in series [2], more than 5000 nM. Moreover, the “Max ThT signal (%)” value in series [3] was 4.200%.
On the same counts, the results for `CC[C@H](C)[C@H](NC(=O)[C@H](CCC(N)=O)NC(=O)[C@H](CC(=O)O)NC(=O)[C@H](C)NC(=O)[C@H](CC(C)C)NC(=O)[C@H](CCCNC(N)=O)NC(=O)[C@H](C)NC(=O)[C@@H](NC(=O)[C@@H](NC(=O)[C@@H]1CSSC[C@H](NC(=O)[C@@H](N)CCCCN)C(=O)N[C@@H](CC(N)=O)C(=O)N[C@@H]([C@@H](C)O)C(=O)N[C@@H](CO)C(=O)N[C@@H]([C@@H](C)O)C(=O)N1)[C@@H](C)O)C(C)C)C(=O)N[C@H](C(=O)N[C@@H](CCC(N)=O)C(=O)N[C@@H](Cc1ccccc1)C(=O)N[C@@H](CO)C(=O)N[C@@H](CC(=O)O)C(=O)N[C@@H](CCCCN)C(=O)N[C@@H](CC(=O)O)C(=O)N[C@@H](CCCCN)C(=O)N[C@@H](C)C(=O)N[C@@H](CC(N)=O)C(=O)N[C@H](C(=O)N[C@@H](CO)C(=O)N1CCC[C@H]1C(=O)N1CCC[C@H]1C(=O)N[C@H](C(=O)N[C@@H](CCC(=O)O)C(=O)N[C@H](C(=O)NCC(=O)N1CCC[C@H]1C(=O)N[C@@H](CC(N)=O)C(=O)N[C@@H](CO)C(=O)N1C[C@H](O)C[C@H]1C(N)=O)C(C)C)[C@@H](C)O)C(C)C)[C@@H](C)O` [compound 247] (H-KCNTSTCTVA[Cit]LADQITQFSDKDKANVSPPTEVGPNS[Hyp]-NH2; disulfide 2-7; N-terminus assumed) are 0.004 nM, more than 5000 nM and 1.350%.
